Test results as given in patent publication US8993631B2, “Method of treating contrast-induced nephropathy” (Novartis AG, priority 2010, dated 2015).
Structures can show the parent of a compound that is named as a salt. Where no end group is shown, it is not given here.

How the values were obtained:
[1] = test system: adult male cannulated Sprague-Dawley rats; experiment: Renal function assessment in rats: GFR by FITC-inulin clearance method; conditions: relative to vehicle-treated rats
Procedure: A fluorescein isothiocyanate (FITC)-inulin stock solution was prepared by weighing the FITC-inulin powder, adding it to saline (50 mg/ml), and heating it in boiling water until dissolved. The solution was filtered and dialyzed overnight to remove unbound FITC. The next day, the dialysate was again filtered to sterilize it.
Approximately 1-2 weeks before the study, femoral arterial and venous catheters were implanted in the rats under isoflurane anesthesia. The catheters were exteriorized through a spring tether/swivel system and the instrumented rats were housed in specialized cages.
On the experimental day, rats were administered a NEP inhibitor or its vehicle by oral gavage. Thirty min later, FITC-inulin (10 mg/kg i.v. bolus) was administered via the venous catheter. Blood samples were withdrawn from the arterial catheter at 3, 7, 10, 15, 30, 60, 90, and 120 min after the FITC-inulin injection for plasma FITC-inulin and compound concentrations.
Arterial pressure was continuously monitored throughout the experiment.
The stock solution of FITC-inulin was serially diluted to generate a standard curve. The dosing solution was also diluted and analyzed to determine the exact amount of FITC-inulin injected. […] Concentrations of FITC-inulin in the plasma and dosing solution were determined by linear regression from the standard curve. FITC-inulin AUC(O-infinity) was derived by WinNonlin for each rat's plasma concentration-time curves. GFR (FITC-inulin clearance) was calculated for each animal as the injected dose divided by the AUC.

[2] = target: recombinant human neutral endopeptidase (NEP, EC 3.4.24.11) (Homo sapiens (Human), UniProt P08473); experiment: In vitro inhibition of recombinant human neutral endopeptidase (fluorescence lifetime assay); assay type: biochemical; conditions: 1 hour pre-incubation, effect determined after 1 hour at room temperature, pH 7.4
Text: The activity of a compound for use in the method according to the present invention can be assessed by the following in vitro & in vivo methods and/or by the following in vitro & in vivo methods well-described in the art. See A fluorescence lifetime-based assay for protease inhibitor profiling on human kallikrein 7 Doering K, Meder G, Hinnenberger M, Woelcke J, Mayr L M, Hassiepen U Biomol Screen.
In particular, the in vitro inhibition of recombinant human neutral endopeptidase (NEP, EC 3.4.24.11) can be determined as follows: […]

[3] = test system: patients with chronic renal insufficiency undergoing cardiac catheterization; conditions: 48 hour infusion at 0.042 μg/kg/min, at-risk patients undergoing cardiac catheterization; cited from earlier work

recombinant human neutral endopeptidase (NEP, EC 3.4.24.11), sequence (P08473 whole entry): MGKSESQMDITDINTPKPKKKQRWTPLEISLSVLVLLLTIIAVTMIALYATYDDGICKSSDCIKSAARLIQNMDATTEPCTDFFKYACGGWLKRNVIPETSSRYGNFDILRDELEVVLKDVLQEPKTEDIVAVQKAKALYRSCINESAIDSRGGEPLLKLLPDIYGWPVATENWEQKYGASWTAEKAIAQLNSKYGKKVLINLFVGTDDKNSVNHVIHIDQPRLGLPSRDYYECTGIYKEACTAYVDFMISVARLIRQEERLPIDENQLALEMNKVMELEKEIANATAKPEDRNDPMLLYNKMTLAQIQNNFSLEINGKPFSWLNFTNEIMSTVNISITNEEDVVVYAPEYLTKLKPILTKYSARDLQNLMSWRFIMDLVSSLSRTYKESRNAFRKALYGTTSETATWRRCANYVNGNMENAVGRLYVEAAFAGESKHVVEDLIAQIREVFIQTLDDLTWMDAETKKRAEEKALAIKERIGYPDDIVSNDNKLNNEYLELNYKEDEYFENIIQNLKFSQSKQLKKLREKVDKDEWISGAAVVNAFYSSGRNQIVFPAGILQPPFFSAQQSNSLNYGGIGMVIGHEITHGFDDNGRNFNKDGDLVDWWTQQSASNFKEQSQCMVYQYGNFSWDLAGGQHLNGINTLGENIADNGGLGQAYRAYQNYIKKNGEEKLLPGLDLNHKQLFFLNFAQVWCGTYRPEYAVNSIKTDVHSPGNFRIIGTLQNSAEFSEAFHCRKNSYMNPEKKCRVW

| Molecule | IC50 [2] [nM] | % GFR increase ([1]; dose 1 mg/kg p.o.) [%] | further results |
| --- | --- | --- | --- |
| CCOC(=O)C[C@@H](Cc1ccc(-c2cccc(Cl)c2)cc1)NC(=O)CCC(=O)O [Example 1-2, (R)-4-(1-(3′-chlorobiphenyl-4-yl)-4-ethoxy-4-oxobutan-2-ylamino)-4-oxobutanoic acid] |  |  | % GFR increase ([1]; dose 0.1 mg/kg p.o.): 23% |
| CCOC(=O)C[C@@H](Cc1ccc(-c2ccccc2)cc1)NC(=O)CN1CCC[C@H]1C(=O)OCc1ccccc1 [Example 3-11, (S)-benzyl 1-(2-((R)-1-(biphenyl-4-yl)-4-ethoxy-4-oxobutan-2-ylamino)-2-oxoethyl)pyrrolidine-2-carboxylate trifluoroacetic acid salt] | 18 |  |  |
| CCCCOC(=O)CCC(=O)N[C@@H](CC(=O)O)Cc1ccc(-c2cccc(Cl)c2)cc1 [Example 3-12, (R)-3-(4-butoxy-4-oxobutanamido)-4-(3′-chlorobiphenyl-4-yl)butanoic acid] | 15 | 32 |  |
| CCc1ncc(C(=O)N[C@@H](CC(=O)O)Cc2ccc(-c3cc(Cl)ccc3F)cc2)o1 [Example 9-7] |  | 35 |  |
| CCOC(=O)[C@H](C)N[C@@H](Cc1ccc(-c2cccc(Cl)c2)cc1)C(=O)Nc1nnn[nH]1 [Example 31, (S)-2-[(S)-2-(3′-chloro-biphenyl-4-yl)-1-(1H-tetrazol-5-ylcarbamoyl)-ethylamino]-propionic acid ethyl ester] |  |  | % GFR increase ([1]; dose 0.1 mg/kg p.o.): 27% |
| C[C@H](N[C@@H](Cc1ccc(-c2cccc(Cl)c2)cc1)C(=O)Nc1cc(O)no1)C(=O)O [Example 32-4, (S)-2-[(S)-2-(3′-Chloro-biphenyl-4-yl)-1-(3-hydroxy-isoxazol-5-ylcarbamoyl)-ethylamino]-propionic acid] | 2.4 |  |  |
| CCOC(=O)[C@H](C)C[C@@H](Cc1ccc(-c2ccccc2)cc1)NC(=O)CCC(=O)O [Example 34, (2R,4S)-5-Biphenyl-4-yl-4-(3-carboxy-propionylamino)-2-methyl-pentanoic acid ethyl ester] |  |  | % GFR increase ([1]; dose 100 mg/kg p.o.): 37% |
| CCOC(=O)[C@H](C)C[C@@H](Cc1ccc(-c2cccc(Cl)c2)cc1)NC(=O)CCC(=O)O [Example 35, (2R,4S)-4-(3-carboxy-propionylamino)-5-(3′-chloro-biphenyl-4-yl)-2-methyl-pentanoic acid ethyl ester] |  | 22 |  |
| Human Endogenous atrial natriuretic peptides (SLRRSSCFGGRMDRIGAQSGLGCNSFRY; ends and bridges not checked; cysteine pairing not given here; UniProt P01160 124-151, looked up) [Human ANP, "Human Endogenous atrial natriuretic peptides (ANP) infusions have been available in Japan for use in acute decompensated heart failure"; infused at 0.042 μg/kg/min] |  |  | reduction of the incidence of contrast-induced nephropathy [3]: 70% |
